Experiments:
[1] = test system: NMDA receptor on hippocampal neurons; conditions: 100 μM pregnanolone sulphate, responses to 100 μM NMDA, hippocampal neurons (Petrovic et al., 2005); cited from earlier work
[2] = target: T1, recombinant NR1/NR2B receptors (Rattus norvegicus, UniProt P35439+Q00960); assay: Patch-clamp, inhibition of glutamate responses of recombinant NMDA receptors in transfected HEK293 cells; format: cell-based; conditions: for IC50: calculated from relative inhibition with Hill's coefficient 1.2; for Relative inhibition effect (%): responses to 1 mM glutamate, -60 mV, HEK293 NR1-1a/NR2B, steroid 50, 100 or 200 μM
T1 construct: expressed in transfected cells; host or cells: HEK293 cells (ATCC CRL1573)
T1 sequence (Q00960 27-1482, other chains not shown): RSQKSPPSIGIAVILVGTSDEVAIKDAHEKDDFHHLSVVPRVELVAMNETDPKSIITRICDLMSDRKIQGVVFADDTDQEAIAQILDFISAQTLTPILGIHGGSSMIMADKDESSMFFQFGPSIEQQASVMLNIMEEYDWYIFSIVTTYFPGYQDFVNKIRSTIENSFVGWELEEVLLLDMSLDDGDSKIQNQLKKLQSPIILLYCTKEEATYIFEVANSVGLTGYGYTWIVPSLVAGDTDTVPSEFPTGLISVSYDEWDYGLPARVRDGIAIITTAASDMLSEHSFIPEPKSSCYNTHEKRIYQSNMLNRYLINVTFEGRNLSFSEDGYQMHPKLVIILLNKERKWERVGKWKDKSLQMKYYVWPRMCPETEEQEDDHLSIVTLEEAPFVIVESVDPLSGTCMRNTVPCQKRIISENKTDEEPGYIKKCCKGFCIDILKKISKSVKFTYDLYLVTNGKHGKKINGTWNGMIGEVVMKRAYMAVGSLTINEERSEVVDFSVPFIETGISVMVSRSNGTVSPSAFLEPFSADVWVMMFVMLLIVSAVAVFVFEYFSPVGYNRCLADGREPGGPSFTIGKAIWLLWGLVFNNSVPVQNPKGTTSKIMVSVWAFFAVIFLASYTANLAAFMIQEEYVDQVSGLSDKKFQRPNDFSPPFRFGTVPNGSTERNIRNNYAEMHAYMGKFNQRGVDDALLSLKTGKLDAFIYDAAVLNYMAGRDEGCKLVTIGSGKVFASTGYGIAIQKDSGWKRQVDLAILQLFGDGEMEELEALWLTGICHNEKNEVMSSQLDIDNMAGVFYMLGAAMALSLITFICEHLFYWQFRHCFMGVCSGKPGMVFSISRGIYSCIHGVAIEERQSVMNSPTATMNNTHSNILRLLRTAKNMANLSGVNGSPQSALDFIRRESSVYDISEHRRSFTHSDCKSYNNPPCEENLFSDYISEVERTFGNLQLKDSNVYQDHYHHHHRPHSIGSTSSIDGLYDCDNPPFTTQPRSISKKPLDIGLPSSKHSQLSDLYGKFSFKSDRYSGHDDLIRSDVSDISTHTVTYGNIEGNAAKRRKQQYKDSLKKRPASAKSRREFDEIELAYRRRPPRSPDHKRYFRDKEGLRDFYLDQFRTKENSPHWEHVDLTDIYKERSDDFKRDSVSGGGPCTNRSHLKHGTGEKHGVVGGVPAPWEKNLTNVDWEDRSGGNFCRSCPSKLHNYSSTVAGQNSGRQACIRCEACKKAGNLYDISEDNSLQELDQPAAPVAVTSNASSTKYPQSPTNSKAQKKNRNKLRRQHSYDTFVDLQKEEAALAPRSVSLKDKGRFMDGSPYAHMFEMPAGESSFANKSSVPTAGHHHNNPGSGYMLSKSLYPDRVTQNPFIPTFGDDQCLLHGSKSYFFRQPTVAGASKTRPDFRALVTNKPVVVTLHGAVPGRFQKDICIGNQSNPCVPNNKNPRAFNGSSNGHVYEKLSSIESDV

[3] = target: T1, recombinant NR1/NR2B receptors; conditions: 100 μM pregnanolone sulphate, recombinant NR1/NR2B receptors (Petrovic et al., 2005); listed as preganolone sulphate; cited from earlier work
[4] = test system: C6 glioma cell line; assay: Growth of glioma cells in culture; format: cell-based; conditions: 0.1 and 1 μg in 50 ml β-cyclodextrine solution, 3 div + 6 days
Description: The effect of compound from the example 9 (the model molecule) on growth of glioma cells was studied on C6 glioma cell line (ATTC, Rockville). The model molecule was tested at doses of 0.1 and 1 μg dissolved in 50 ml of β-cyclodextrine solution. Parallel control groups were administered by cholesterol at doses of 0.1 and 1 μg dissolved in 50 ml of β-cyclodextrine solution. The last group included in the experiment was left intact without any application.
The cells were cultivated in vitro for 3 days (div). Afterwards tested molecule was applied and the cell culture was studied for additional 6 days. Olympus microscope with phase contrast and 200× magnification was used for the cell monitoring.

[5] = test system: rats; assay: Active allothetic place avoidance (AAPA) task, compound applied alone; format: in vivo, rat
Description: The effect of compound from Example 9 on cognitive behaviors and locomotion was assessed using active allothetic place avoidance (AAPA) task, which requires intact hippocampi and ability of animals to navigate in space using distinct reference frames (spatial navigation and “cognitive coordination”) (Wesierska et al., 2005) and it also allows measuring changes in the accompanying locomotor activity. AAPA task training involves animals trained to move over a slowly rotating uniform circular arena, on which a prohibited sector is defined, entering which is punished by a mild footshock. A shock sector and its position can be determined solely by its relationship to distal orienting cues in the room (Stuchlik et al., 2008).
This task is highly dependent upon hippocampal formation, with unilateral reversible ablation of this structure with TTX leading to avoidance deficit (Cimadevilla et al., 2001). Animals solving this task should walk in a direction opposite to arena rotation; otherwise it would be repeatedly brought to a fixed sector by arena rotation. We conducted 4 acquisition session of AAPA task, during which the sector location was always reinforced and remained stable throughout the training. Each session lasted 20 min.
Control animals obtained saline intraperitoneally (i.p.) whilst experimental groups received subcutaneous (s.c.) injections of the compound from Example 9 at doses 1 mg/kg and 10 mg/kg (dissolved in cyclodextrin). Solution of compound from Example 9 (1 mg/2 ml or 10 mg/2 ml in cyclodextrin) was applied s.c. at a volume 2 ml/kg of body weight (b.w.). Intraperitonal application of dizocilpine (a non-competitive NMDA receptor antagonist; showing significant neuroprotective activity but exerting cognition-disturbing and psychotomimetic effects) was used as a positive control. Dizocilpine was applied at doses 0.1 mg/kg, 0.2 mg/kg and 0.3 mg/kg. It is worth noting that dizocilpine (albeit its experimental neuroprotective activity) is often used to model schizophrenia-like behaviors in […] and it has been repeatedly shown to exert a dose-dependent learning deficit and hyperlocomotion.

[6] = test system: rats; assay: Open-field locomotion in MK-801 animal model of schizophrenia; format: in vivo, rat; conditions: substance alone; Example 9 0.1 and 1 mg/kg, MK-801 0.1 mg/kg
Description: The effect of the compound from example 9 in doses of 0.1 mg/kg and 1 mg/kg on locomotor activity in open field test was evaluated. Locomotor activity expressed as a total distance travelled during 30 min exploration of a box (68×68×30 cm) located in a sound proof room was measured using a video tracking system for automation of the behavioural experiments (Noldus, EthoVision, Version 2.1.).

[7] = Example 9 1 and 10 mg/kg s.c., dizocilpine 0.1-0.3 mg/kg i.p.

Compound	IC50 [2]	Relative inhibition effect (%) [2]	also measured
20-oxo-5beta-pregnan-3alpha-yl sulfate [Pregnanolone sulphate]	55 µM	–	mean inhibition effect [1]: 71.3±5.0%; mean inhibition effect [3]: 67.2±8.2%
CC(=O)[C@H]1CC[C@H]2[C@@H]3CC[C@@H]4C[C@H](OC(=O)[C@@H](N)CC(=O)O)CC[C@]4(C)[C@H]3CC[C@]12C [Example 3, 20-Oxo-5β-pregnan-3α-yl L-aspartyl 1-ester]	51 µM	83.6 ± 2.7%	–
CC(=O)[C@H]1CC[C@H]2[C@@H]3CC[C@@H]4C[C@H](OC(=O)CCCCC(=O)O)CC[C@]4(C)[C@H]3CC[C@]12C [Example 13, 20-Oxo-5β-pregnan-3α-yl-adipyl 1-ester]	40 µM	87.3 ± 8.9%	–
CC(=O)[C@H]1CC[C@H]2[C@@H]3CC[C@@H]4C[C@H](OC(=O)CCCCCC(=O)O)CC[C@]4(C)[C@H]3CC[C@]12C [Example 14, 20-Oxo-5β-pregnan-3α-yl 6-carboxyhexanoate]	135 µM	61.5 ± 10.6%	–
CC(=O)[C@H]1CC[C@H]2[C@@H]3CC[C@@H]4C[C@H](OC(=O)CCCCCCC(=O)O)CC[C@]4(C)[C@H]3CC[C@]12C [Example 15, 20-Oxo-5β-pregnan-3α-yl 7-carboxyheptanoate]	175 µM	54.0 ± 10.8%	–
CC(=O)[C@H]1CC[C@H]2[C@@H]3CC[C@@H]4C[C@H](OC(=O)/C=C\C(=O)O)CC[C@]4(C)[C@H]3CC[C@]12C [Example 17, 20-Oxo-5β-pregnan-3α-yl (Z)-3-carboxyprop-2-enoate]	14 µM	81.6 ± 2.7%	–
CC(=O)[C@H]1CC[C@H]2[C@@H]3CC[C@@H]4C[C@H](OC(=O)C(C)CC(=O)O)CC[C@]4(C)[C@H]3CC[C@]12C (stereo partly drawn) [Example 19, 20-Oxo-5β-pregnan-3α-yl 3-carboxy-ξ-methyl-propanoate]	30 µM	80.9 ± 3.6%	–
COC(=O)CN[C@@H]1CC[C@@]2(C)[C@H](CC[C@@H]3[C@@H]2CC[C@]2(C)[C@@H](C(C)=O)CC[C@@H]32)C1.Cl [Example 26, N-(20-Oxo-5β-pregnan-3α-yl) glycine methylester hydrochloride]	250 µM	43.4 ± 3.4%	–
CC(C)CCC[C@@H](C)[C@H]1CC[C@H]2[C@@H]3CC=C4C[C@@H](O)CC[C@]4(C)[C@H]3CC[C@]12C [cholesterol, reference compound]	–	–	effect on growth of glioma cells [4]: slightly apparent
C[C@]12N[C@H](Cc3ccccc31)c1ccccc12 [dizocilpine]	–	–	maximum time avoided in AAPA [5, 7]: significantly decreased rats' performance; number of entrances into shock sector in AAPA [5, 7]: dose-dependently disrupted this parameter; total distance traveled in AAPA (locomotor activity) ([5]; Example 9 1 and 10 mg/kg s.c., dizocilpine 0.1-0.3 mg/kg i.p., 20-min sessions): dose-dependently and consistently stimulated the locomotor activity; locomotor activity in AAPA ([5]; dizocilpine 0.1 mg/kg i.p.): hyperlocomotion was not observed; locomotor activity in AAPA ([5]; dizocilpine 0.2 mg/kg i.p.): marked locomotor hyperactivity; locomotor activity in AAPA ([5]; dizocilpine 0.3 mg/kg i.p.): even more dramatic hyperlocomotion; locomotion in open field (total distance, 30 min) [6]: hyperlocomotion state induced by MK-801
